# Test results as given in patent US20170007595A1, “NSD3 INHIBITORS FOR TREATMENT OF CANCERS” (THE BRIGHAM AND WOMEN'S HOSPITAL, INC., priority 2014, published 2017).
# T1: NSD3 (endogenous, wild type) (human, UniProt Q9BZ95 1-1437, limits assumed)
# T1 construct: Endogenous protein of cell lysates detected with an anti-NSD3 antibody; also called wild type NSD3; WHSC1L1
# T1 sequence: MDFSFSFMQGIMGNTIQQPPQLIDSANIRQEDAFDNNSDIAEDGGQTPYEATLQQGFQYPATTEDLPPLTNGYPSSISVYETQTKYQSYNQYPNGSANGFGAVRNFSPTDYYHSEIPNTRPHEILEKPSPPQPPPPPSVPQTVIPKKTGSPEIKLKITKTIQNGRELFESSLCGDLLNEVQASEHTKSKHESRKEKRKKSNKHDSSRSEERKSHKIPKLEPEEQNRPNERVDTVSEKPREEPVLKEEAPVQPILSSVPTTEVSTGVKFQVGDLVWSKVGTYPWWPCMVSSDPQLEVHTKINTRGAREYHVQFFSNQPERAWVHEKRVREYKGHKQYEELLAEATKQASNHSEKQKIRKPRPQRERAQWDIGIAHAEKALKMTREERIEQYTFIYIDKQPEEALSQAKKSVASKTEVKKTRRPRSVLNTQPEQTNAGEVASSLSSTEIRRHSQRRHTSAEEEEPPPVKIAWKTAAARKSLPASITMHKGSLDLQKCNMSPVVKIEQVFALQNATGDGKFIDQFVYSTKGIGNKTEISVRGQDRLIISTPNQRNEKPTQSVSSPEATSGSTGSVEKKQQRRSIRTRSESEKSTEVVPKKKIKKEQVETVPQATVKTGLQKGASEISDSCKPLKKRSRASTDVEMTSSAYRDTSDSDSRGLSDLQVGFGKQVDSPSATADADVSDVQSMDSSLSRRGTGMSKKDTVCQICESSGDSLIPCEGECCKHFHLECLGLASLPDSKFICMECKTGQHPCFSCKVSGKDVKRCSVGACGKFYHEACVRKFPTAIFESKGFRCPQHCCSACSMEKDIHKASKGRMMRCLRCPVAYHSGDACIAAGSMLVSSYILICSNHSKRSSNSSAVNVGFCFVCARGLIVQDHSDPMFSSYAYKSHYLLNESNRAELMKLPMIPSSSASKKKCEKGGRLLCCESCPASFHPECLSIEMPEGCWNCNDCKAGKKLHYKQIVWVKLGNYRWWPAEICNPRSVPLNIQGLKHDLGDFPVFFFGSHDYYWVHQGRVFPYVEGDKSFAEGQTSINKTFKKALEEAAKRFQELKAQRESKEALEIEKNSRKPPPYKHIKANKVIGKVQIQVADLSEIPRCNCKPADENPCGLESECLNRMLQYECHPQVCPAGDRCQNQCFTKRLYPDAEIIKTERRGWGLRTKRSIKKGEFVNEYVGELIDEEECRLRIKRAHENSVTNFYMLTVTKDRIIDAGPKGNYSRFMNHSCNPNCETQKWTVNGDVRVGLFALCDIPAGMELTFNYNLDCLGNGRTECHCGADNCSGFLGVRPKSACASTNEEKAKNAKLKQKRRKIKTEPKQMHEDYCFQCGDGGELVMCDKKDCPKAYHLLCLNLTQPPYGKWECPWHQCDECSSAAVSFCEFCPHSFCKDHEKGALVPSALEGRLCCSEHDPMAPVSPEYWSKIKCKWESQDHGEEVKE
# B1: HA-tagged NUT (full length) (other)
# chain: MASDGASALPGPDMSMKPSAALSPSPALPFLPPTSDPPDHPPREPPPQPIMPSVFSPDNPLMLSAFPSSLLVTGDGGPCLSGAGAGKVIVRVKTEGGSAEPSQTQNFILTQTALNSTAPGTPCGGLEGPAPPFVTASNVKTILPSKAVGVSQEGPPGLPPQPPPPVAQLVPIVPLEKAWPGPHGTTGEGGPVATLSKPSLGDRSKISKDVYENFRQWQRYKALARRHLSQSPDTEALSCFLIPVLRSLARLKPTMTLEEGLPLAVQEWEHTSNFDRMIFYEMAERFMEFEAEEMQIQNTQLMNGSQGLSPATPLKLDPLGPLASEVCQQPVYIPKKAASKTRAPRRRQRKAQRPPAPEAPKEIPPEAVKEYVDIMEWLVGTHLATGESDGKQEEEGQQQEEEGMYPDPGLLSYINELCSQKVFVSKVEAVIHPQFLADLLSPEKQRDPLALIEELEQEEGLTLAQLVQKRLMALEEEEDAEAPPSFSGAQLDSSPSGSVEDEDGDGRLRPSPGLQGAGGAACLGKVSSSGKRAREVHGGQEQALDSPRGMHRDGNTLPSPSSWDLQPELAAPQGTPGPLGVERRGSGKVINQVSLHQDGHLGGAGPPGHCLVADRTSEALPLCWQGGFQPESTPSLDAGLAELAPLQGQGLEKQVLGLQKGQQTGGRGVLPQGKEPLAVPWEGSSGAMWGDDRGTPMAQSYDQNPSPRAAGERDDVCLSPGVWLSSEMDAVGLELPVQIEEVIESFQVEKCVTEYQEGCQGLGSRGMISLGPGETLVPGDTESSVIPCGGTVAAAALEKRNYCSLPGPLRANSPPLRSKENQEQSCETVGHPSDLWAEGCFPLLESGDSTLGSSKETLPPTCQGNLLIMGTEDASSLPEASQEAGSRGSFSPLLETIEPVNILDVKDDCGLQLRVSEDTCPLNVHSYDPQGEGRVDPDLSKPKNLAPLQESQESYTTGTPKATSSHQGLGSTLPRRGTRNAIVPRETSVSKTHRSADRAKGKEKKKKEAEEEDEELSNFAYLLASKLSLSPREHPLSPHHASGGQGSQRASHLLPAGAKGPSKLPYPVAKSGKRALAGGPAPTEKTPHSGAQLGVPREKPLALGVVRPSQPRKRRCDSFVTGRRKKRRRSQ
# notes: also called HA-NUT; not shown: N-terminal HA tag
# What was measured:
# [1] = system: macrophages; settings: cited from earlier work
# [2] = system: 1221 cells (NSD3-NUT-positive NMC); assay: high throughput 384-well immunofluorescence analysis (keratin, Ki-67, cell number) of 1221 NMC cells; format: cell-based, human; settings: 72 h, dose-dependent
# Procedure: For TC-797, Per403, and 8645 cells, 7×10^6 cells were transfected with 50 nM siRNA using Nucleofector II (Lonza, Basel, Switzerland) and Amaxa solution R and plated in 100 mm cell culture dish. 1221 cells were transfected using RNAi-MAX (Invitrogen) using the manufacturer's protocol. Briefly, reverse transfection procedure was used to deliver 50 nM siRNA to 33×10^4 cells in a 6 well plate. Cells were analyzed for mRNA levels 24 h after transfection. Sequences of siRNA used were: siControl, ON-TARGET plus siRNA #1 (Dharmacon, Cat # D-001810-01-20), siNUT-1 (targeting coding sequence) […] (SEQ ID NO: 57), siNUT-2 (targeting the 3′ UTR) […] (SEQ ID NO: 58), siBRD4 5′ siGENOME Human BRD4 (Dharmacon Cat # D-004937-02), siBRD4 3′ […] (SEQ ID NO: 59), siNSD3-6 ON-TARGETplus Human WHSC1L1 (54904) (Dharmacon Cat # J-012875-06), siNSD3-7, ON-TARGETplus Human WHSC1L1 (54904) siRNA (Dharmacon Cat # J-012875-07), siNSD3 3′-1 […] (SEQ ID NO: 15), si NSD3 3′-2 […] […]
# Cells were transfected in 384 well format using 50 nM control siRNA (above), NSD3 siRNA (above), BRD4 siRNA, and NUT siRNA (above), as described (6), or a dose range of JQ1 treatment. […] Each condition was performed in triplicate in 384-well plate format in three separate experiments, where wells were analyzed using MetaXpress with Multi Wavelength Cell Scoring for cell number, average keratin fluorescence pixel intensity, and % Ki-67 per well. […]
# [3] = system: BET Bromodomains; settings: cited from earlier work
# [4] = target: T1, NSD3 (endogenous, wild type); assay: anti-HA co-immunoprecipitation from C33A-6TR lysates, Western blot with anti-NSD3
# Procedure: For co-immunoprecipitation experiments of HA-tagged proteins, C33A-6TR cells stably expressing HA-tagged constructs under a Tet-inducible promoter were used. Protein extracts were prepared 24 h after transfection or induction with Doxycycline (1 μg/ml). Cells were lysed in lysis buffer (50 mM Tris-HCl [pH 7.5], 150 mM NaCl, 0.5% Nonidet P-40) with freshly added protease inhibitors (Roche Complete, EDTA free protease inhibitor cocktail, Roche, Indianapolis, Ind.). Extracts were adjusted for protein concentration and 10% of extracts were used as Input Immunoprecipitations were performed using 15 μl of HA-resin (Sigma A2095). Extracts were incubated overnight at 4° C., and precipitated proteins were detected by Western blot analysis.
molecule,measurement,setting,value
CCNC(=O)C[C@@H]1N=C(c2ccc(Cl)cc2)c2cc(OC)ccc2-n2c(C)nnc21 [I-BET-762],production of proinflammatory proteins by macrophages,[1],suppresses the production of proinflammatory proteins
"Cc1sc2c(c1C)C(c1ccc(Cl)cc1)=N[C@@H](CC(=O)OC(C)(C)C)c1nnc(C)n1-2 [JQ1, (S)-tert-butyl 2-(4-(4-chlorophenyl)-2,3,9-trimethyl-6H-thieno[3,2-f][1,2,4]triazolo[4,3-a][1,4]diazepin-6-yl)acetate]",differentiation (keratin intensity),[2]; dose range of JQ1 vs DMSO,results in differentiation
same,proliferation (cell number),[2]; increasing concentrations of JQ1 vs DMSO,arrested proliferation
O=c1cc(N2CCOCC2)oc2c(-c3ccccc3)cccc12 [LY294002],BET inhibition,[3],reported to be a BET inhibitor
B1,binding result,[4],no binding
